Ten molecules from patent US20250041294A1, “Synergistic compositions for use in the treatment of cancer” (Sartar Therapeutics Oy, priority 2021, published 2025) can be followed below.

Holding throughout (assay type): cell-based
Test [1] relates to GOT3 cell line. Briefly: High throughput drug sensitivity and resistance test (CellTiter-Glo, 72 hours). The conditions noted are these: drug combined with BAY2666605 (40 nM) minus drug alone, GOT3. As to the method: (§1) Cell lines. PDE3A-positive (GIST882, SA4, and GOT3) and PDE3A-negative cell lines (93TT449, 94T778, LPS141, MLS17656-92, MLS402-91, and SW872) were cultured in RPMI Medium 1640 (Gibco) with 5-, 10- or 20% fetal bovine serum (FBS, gibco), 100 U/mL of penicillin, 100 […] and 0.03 mg/mL of L-glutamine (Pen Strep Glut, Gibco, 10378-016) in a humidified, 5% CO2 atmosphere at 37° C.
(§2) High throughput drug sensitivity and resistance test. A sensitivity and resistance of cancer cell lines to 528 compounds were investigated in 9 cell lines (GIST882, SA4, GOT3, 93TT449, 94T778, LPS141, MLS17656-92, MLS402-91, and SW872). In addition, same compounds were investigated together with anagrelide hydrochloride (100 nM) treatment in the PDE3A low expressing cell lines SA4 and GOT3, and with BAY2666605 (40 nM) in all PDE3A-positive cell lines GIST882, SA4 and GOT3. The compounds were dissolved in 100% dimethyl sulfoxide or water and plated in 10-fold dilutions covering a 10,000-fold concentration range on flat clear bottom 384-well microplates as described in detail earlier (Pulkka O P, et al 2019). A cell viability was measured after 72 hours using CellTiter-Glo Cell Viability assay (Promega Inc.) and PHERAstar FS plate reader (BMG Labtech). The data were normalized to negative (0.01% dimethyl sulfoxide only) and positive (100 μmol/L benzethonium chloride) controls.
(§3) A four-parameter logistic dose-response curves were estimated by using the Marquardt-Levenberg algorithm and Breeze analysis platform. Drug responses to the test compounds were measured using the drug sensitivity score (DSS). Drug synergy partners, which were common in investigated cell lines were identified as following: DSS value of a single agent was subtracted from the DSS value of anagrelide-drug combination in single cell lines. […] The analysis was repeated by using BAY2666605 as a PDE3A modulator.

The subject of test [2] is SA4 cell line. The description is as above. The conditions noted are these: drug combined with BAY2666605 (40 nM) minus drug alone, SA4. As to the method: as §1, §2, §3
The test system of test [3] is GIST882 cell line. Described as above. As to conditions: drug combined with BAY2666605 (40 nM) minus drug alone. Here is the method:
High throughput drug sensitivity and resistance test. […] In addition, same compounds were investigated together with anagrelide hydrochloride (100 nM) treatment in the PDE3A low expressing cell lines SA4 and GOT3, and with BAY2666605 (40 nM) in all PDE3A-positive cell lines GIST882, SA4 and GOT3. […] A cell viability was measured after 72 hours using CellTiter-Glo Cell Viability assay (Promega Inc.) and PHERAstar FS plate reader (BMG Labtech). The data were normalized to negative (0.01% dimethyl sulfoxide only) and positive (100 μmol/L benzethonium chloride) controls.
as §3

In test [4] the test system is GIST882, GOT3 and SA4 cell lines. Briefly: High throughput drug sensitivity and resistance test, average over cell lines (BAY2666605 combination). The conditions noted are these: for Average DSS (aDSS): BAY2666605 combination, average of GIST882, SA4 and GOT3, aDSS higher than 3.0 = synergy; for synergy in high-throughput screening (in words): with anagrelide (GOT3, SA4) or BAY2666605 (GIST882, GOT3, SA4). As to the method:
as §1, §2, §3

For `NC(=O)/C(=C/n1cnc(-c2cc(C(F)(F)F)cc(C(F)(F)F)c2)n1)c1cncnc1` [Eltanexor, eltanexor], the “GOT3 cell line: DSS(combo (BAY2666605))-DSS(drug)” value (shortened to “GOT3 cell line”) in test [1] amounted to 0.8. Also, the “SA4 cell line: DSS(combo (BAY2666605))-DSS(drug)” value (from here on “SA4 cell line”) in test [2] came out at 3.1. Besides, the “GIST882 cell line: DSS(combo (BAY2666605))-DSS(drug)” value (“GIST882 cell line” below) in test [3] was found to be 5.4. Moreover, in test [4], the “Average DSS (aDSS)” value came out at 3.1 and the “synergy in high-throughput screening (in words)” value (shortened to “synergy”) is “synergistic”.
For the molecule `C[C@@]1(C(=O)Nc2ccc(F)nc2)CCCN1c1nc(Nc2cc(C3CC3)n[nH]2)c2cccn2n1` [BMS-754807], in test [1], the “GOT3 cell line” value was 4.4. In addition, the “SA4 cell line” value in test [2] is recorded as 7.5. In addition, the “GIST882 cell line” value in test [3] worked out at 0.7. Besides, in test [4], the “Average DSS (aDSS)” value is on record as 4.2 and the “synergy” value is “synergistic”.
`O=C(/C=C\n1cnc(-c2cc(C(F)(F)F)cc(C(F)(F)F)c2)n1)NNc1cnccn1` [Selinexor]: the “GOT3 cell line” value in test [1] is listed as −0.7. Moreover, the “SA4 cell line” value in test [2] is given as 5.4. Besides, the “GIST882 cell line” value in test [3] was found to be 7.9. Besides, in test [4], the “Average DSS (aDSS)” value is 4.2 and the “synergy” value is given as “synergistic”.
`COc1c(OCCCN2CCOCC2)ccc2c1N=C(NC(=O)c1cnc(N)nc1)N1CCN=C21` [Copanlisib, copanlisib]: the “GOT3 cell line” value in test [1] is given as −1.4. Also, in test [2], the “SA4 cell line” value was 8.1. Besides, the “GIST882 cell line” value in test [3] is listed as 6.8. Further, in test [4], the “Average DSS (aDSS)” value is on record as 4.5 and the “synergy” value was “synergistic”.
On to `COc1ccc(-c2ccc3ncc4c(c3c2)n(-c2ccc(N3CCNCC3)c(C(F)(F)F)c2)c(=O)n4C)cn1` [NVP-BGT226], for which the “GOT3 cell line” value in test [1] is 0.1. The “SA4 cell line” value in test [2] turned out to be 8.1. In addition, the “GIST882 cell line” value in test [3] came out at 6.2. Moreover, in test [4], the “Average DSS (aDSS)” value is on record as 4.8 and the “synergy” value is given as “synergistic”.
For `Cn1c(=O)n(-c2ccc(C(C)(C)C#N)cc2)c2c3cc(-c4cnc5ccccc5c4)ccc3ncc21` [Dactolisib, dactolisib], the “GOT3 cell line” value in test [1] is on record as 8.2. In addition, the “SA4 cell line” value in test [2] was 4.6. Moreover, the “GIST882 cell line” value in test [3] was 3.1. For the same molecule, in test [4], the “Average DSS (aDSS)” value was determined as 5.3 and the “synergy” value is listed as “synergistic”.
`C=C(c1ccc(C(=O)O)cc1)c1cc2c(cc1C)C(C)(C)CCC2(C)C` [Bexarotene, bexarotene]: the “GOT3 cell line” value in test [1] is given as −1.1. The “SA4 cell line” value in test [2] came out at 6.4. The “GIST882 cell line” value in test [3] was determined as 6.3. For the same molecule, in test [4], the “Average DSS (aDSS)” value stood at 3.9 and the “synergy” value is “synergistic”.
With `CC(C)C[C@H](NC(=O)[C@H](Cc1ccccc1)NC(=O)c1cnccn1)B(O)O` [Bortezomib, bortezomib], in test [1], the “GOT3 cell line” value is 10.4. In addition, in test [2], the “SA4 cell line” value stood at 11.2. Further, the “GIST882 cell line” value in test [3] worked out at 1.7. For the same molecule, in test [4], the “Average DSS (aDSS)” value is 7.8.
On to `CN1CCc2c(c3ccccc3n2Cc2ccc(C(=O)NO)cc2)C1` [Tubastatin A, tubastatin A], for which the “GOT3 cell line” value in test [1] was found to be 2.8. Moreover, the “SA4 cell line” value in test [2] is recorded as 10.7. Besides, the “GIST882 cell line” value in test [3] is −0.3. Moreover, in test [4], the “Average DSS (aDSS)” value is reported as 4.4 and the “synergy” value is “synergistic”.
With `CC(C)N(C[C@H]1O[C@@H](n2cnc3c(N)ncnc32)[C@H](O)[C@@H]1O)[C@H]1C[C@@H](CCc2nc3cc(C(C)(C)C)ccc3[nH]2)C1` [Pinometostat, pinometostat], in test [1], the “GOT3 cell line” value came out at 0. For the same molecule, the “SA4 cell line” value in test [2] was 9.8. For the same molecule, the “GIST882 cell line” value in test [3] amounted to 3.9. In test [4], the “Average DSS (aDSS)” value is on record as 4.6 and the “synergy” value is “synergistic”.
